The results in this text go back to PubChem BioAssay AID200 (DTP/NCI, 2004).

The assay relates to B6C3F1 mice, B16 melanoma ip, median survival T/C. As to the kind of experiment: NCI In Vivo Anticancer Drug Screen. Data for tumor model B16 Melanoma (intraperitoneal) in B6C3F1 mice. The settings on record: endpoint: median survival time, higher = longer survival. An outline of the steps:
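Antitumor effect was judged in mice with transplanted tumors by dividing the treated group's survival measure by that of vehicle controls.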

The mark [1] stands for this setting: dose: 3.12 mg/kg/injection, schedule: Q01DX009 (ip), vehicle: saline.
Setting [2] is: dose: 6.25 mg/kg/injection, schedule: Q01DX009 (ip), vehicle: saline.
[3] abbreviates: dose: 12.5 mg/kg/injection, schedule: Q01DX009 (ip), vehicle: saline.
Where [4] appears, read: dose: 25.0 mg/kg/injection, schedule: Q01DX009 (ip), vehicle: Klucel (hydroxypropylcellulose) (HPC).
The mark [5] stands for this setting: dose: 50.0 mg/kg/injection, schedule: Q01DX009 (ip), vehicle: Klucel (hydroxypropylcellulose) (HPC).
The mark [6] stands for this setting: dose: 100.0 mg/kg/injection, schedule: Q01DX009 (ip), vehicle: Klucel (hydroxypropylcellulose) (HPC).
Setting [7] is: dose: 12.5 mg/kg/injection, schedule: Q01DX009 (ip), vehicle: saline with Tween-80.
[8] abbreviates: dose: 25.0 mg/kg/injection, schedule: Q01DX009 (ip), vehicle: saline with Tween-80.
The mark [9] stands for this setting: dose: 50.0 mg/kg/injection, schedule: Q01DX009 (ip), vehicle: saline with Tween-80.
Where [10] appears, read: dose: 100.0 mg/kg/injection, schedule: Q01DX009 (ip), vehicle: saline with Tween-80.
The mark [11] stands for this setting: dose: 200.0 mg/kg/injection, schedule: Q01DX009 (ip), vehicle: saline with Tween-80.
Where [12] appears, read: dose: 12.5 mg/kg/injection, schedule: Q01DX009 (ip), vehicle: Klucel (hydroxypropylcellulose) (HPC).
Setting [13] is: dose: 200.0 mg/kg/injection, schedule: Q01DX009 (ip), vehicle: Klucel (hydroxypropylcellulose) (HPC).
Where [14] appears, read: dose: 6.25 mg/kg/injection, schedule: Q01DX009 (ip), vehicle: saline with Tween-80.

Molecules are shown by their SMILES. Values joined by “and” are separate entries in the source; they are usually repeats but may differ in a detail not shown here. Equal entries are not always repeated. Toxic doses and inconclusive results are not listed.

Consider `O=C1C(O)=C(c2ccccc2)C(=O)C(O)=C1c1ccccc1`, for which the T/C runs as follows: under setting [1], 109 % of control; under setting [2], 100 % of control; under setting [3], 91 % of control and 101 % of control; (dose: 25.0 mg/kg/injection, schedule: Q01DX009 (ip), vehicle: saline) 109 % of control and 117 % of control; (dose: 50.0 mg/kg/injection, schedule: Q01DX009 (ip), vehicle: saline) 108 % of control and 112 % of control.

Consider `c1cc2c(c(CC3CO3)c1CC1CO1)OCCOCCOCCOCCO2` (stereo unspecified), for which the T/C is 102 % of control (dose: 6.25 mg/kg/injection, schedule: Q01DX009 (ip), vehicle: saline + alcohol); 112 % of control (dose: 12.5 mg/kg/injection, schedule: Q01DX009 (ip), vehicle: saline + alcohol); 113 % of control (dose: 25.0 mg/kg/injection, schedule: Q01DX009 (ip), vehicle: saline + Tween-80 + alcohol); 112 % of control (dose: 25.0 mg/kg/injection, schedule: Q01DX009 (ip), vehicle: saline + alcohol); 113 % of control (dose: 50.0 mg/kg/injection, schedule: Q01DX009 (ip), vehicle: saline + Tween-80 + alcohol); 119 % of control and 108 % of control (dose: 50.0 mg/kg/injection, schedule: Q01DX009 (ip), vehicle: saline + alcohol). Moreover, the T/C runs as follows: (dose: 100.0 mg/kg/injection, schedule: Q01DX009 (ip), vehicle: saline + Tween-80 + alcohol) 122 % of control; (dose: 100.0 mg/kg/injection, schedule: Q01DX009 (ip), vehicle: saline + alcohol) 113 % of control and 123 % of control; (dose: 200.0 mg/kg/injection, schedule: Q01DX009 (ip), vehicle: saline + alcohol) 109 % of control.

In the case of `CCCCCNc1ncnc2c(C)[nH]nc12`, the T/C under setting [4] was 100 % of control, the T/C under setting [5] is 91 % of control and the T/C under setting [6] is 86 % of control.

On to `CCOC(=O)C1(c2ccccc2)C(=O)Oc2ccccc21` (stereo unspecified), for which the T/C under setting [7] was 99 % of control and 100 % of control; the T/C under setting [8] was 101 % of control and 102 % of control; the T/C under setting [9] was 95 % of control and 105 % of control; the T/C under setting [10] was 93 % of control and 95 % of control; the T/C under setting [11] is 93 % of control and 100 % of control; the T/C (dose: 400.0 mg/kg/injection, schedule: Q01DX009 (ip), vehicle: saline with Tween-80) is 91 % of control.

Regarding `CC(C)(C)OC(=O)NC(Cc1cn(Cc2ccccc2)cn1)C(=O)O` (stereo unspecified), the T/C was 102 % of control under setting [9], 97 % of control under setting [10] and 100 % of control under setting [11].

Turning to `CC1C=NNC1=O` (stereo unspecified), the T/C is, setting by setting: under setting [12], 100 % of control; under setting [4], 102 % of control; under setting [5], 117 % of control; under setting [6], 92 % of control; under setting [13], 95 % of control; (dose: 400.0 mg/kg/injection, schedule: Q01DX009 (ip), vehicle: Klucel (hydroxypropylcellulose) (HPC)) 95 % of control.

With `CCCCCCNc1nc(NCCCCCC)c2[nH]c(NCCCCCC)nc2n1`, the T/C under setting [8] was 107 % of control, the T/C under setting [9] was 101 % of control, the T/C under setting [10] was 96 % of control and the T/C under setting [11] is 91 % of control.

`O=[n+]1c2c(n([O-])c3ccccc31)-c1cccc3cccc-2c13`: the T/C is 99 % of control under setting [1], 91 % of control under setting [2] and 94 % of control under setting [3].

Consider `O=NN(CCCl)C(=O)NC1CCC(=O)NC1=O` (stereo unspecified), for which the T/C (dose: 0.8 mg/kg/injection, schedule: Q01DX005 (ip), vehicle: saline + alcohol) is 118 % of control; the T/C (dose: 0.8 mg/kg/injection, schedule: Q01DX005 (iv), vehicle: saline + alcohol) is 96 % of control; the T/C (dose: 1.6 mg/kg/injection, schedule: Q01DX005 (ip), vehicle: saline + alcohol) was 155 % of control; the T/C (dose: 2.0 mg/kg/injection, schedule: Q01DX005 (ip), vehicle: saline + alcohol) is 175 % of control; the T/C (dose: 2.0 mg/kg/injection, schedule: Q01DX005 (iv), vehicle: saline + alcohol) is 102 % of control; the T/C (dose: 3.2 mg/kg/injection, schedule: Q01DX005 (ip), vehicle: saline + alcohol) is 197 % of control. Moreover, the T/C (dose: 3.2 mg/kg/injection, schedule: Q01DX005 (iv), vehicle: saline + alcohol) was 151 % of control; the T/C (dose: 4.0 mg/kg/injection, schedule: Q01DX001 (ip), vehicle: saline + alcohol) was 195 % of control; the T/C (dose: 4.0 mg/kg/injection, schedule: Q01DX001 (iv), vehicle: saline + alcohol) is 124 % of control; the T/C (dose: 4.0 mg/kg/injection, schedule: Q01DX005 (ip), vehicle: saline + alcohol) was 300 % of control; the T/C (dose: 4.0 mg/kg/injection, schedule: Q01DX005 (iv), vehicle: saline + alcohol) was 180 % of control; the T/C (dose: 6.4 mg/kg/injection, schedule: Q01DX005 (ip), vehicle: saline + alcohol) is 275 % of control. Moreover, the T/C is, setting by setting: (dose: 8.0 mg/kg/injection, schedule: Q01DX001 (ip), vehicle: saline + alcohol) 200 % of control and 291 % of control; (dose: 8.0 mg/kg/injection, schedule: Q01DX001 (iv), vehicle: saline + alcohol) 162 % of control; (dose: 8.0 mg/kg/injection, schedule: Q01DX005 (ip), vehicle: saline + alcohol) 105 % of control; (dose: 8.0 mg/kg/injection, schedule: Q01DX005 (iv), vehicle: saline + alcohol) 150 % of control; (dose: 8.0 mg/kg/injection, schedule: Q01DX005 (oral), vehicle: saline + alcohol) 210 % of control; (dose: 16.0 mg/kg/injection, schedule: Q01DX001 (ip), vehicle: saline + alcohol) 255 % of control and 317 % of control. In addition, the T/C is 194 % of control and 216 % of control (dose: 16.0 mg/kg/injection, schedule: Q01DX001 (iv), vehicle: saline + alcohol); 183 % of control (dose: 16.0 mg/kg/injection, schedule: Q01DX001 (oral), vehicle: saline + alcohol); 89 % of control (dose: 32.0 mg/kg/injection, schedule: Q01DX001 (oral), vehicle: saline + alcohol).

As to `CCCCCCCCCCCCO[P+](=O)OCCCCCCCCCCCC`, the T/C by setting is: under setting [9], 94 % of control; under setting [10], 96 % of control.

In the case of `Oc1cc2ccccc2c(-c2c(O)c(O)cc3ccccc23)c1O`, the T/C (dose: 0.78 mg/kg/injection, schedule: Q01DX009 (ip), vehicle: saline with Tween-80) was 95 % of control; the T/C (dose: 1.56 mg/kg/injection, schedule: Q01DX009 (ip), vehicle: saline with Tween-80) is 115 % of control; the T/C (dose: 3.12 mg/kg/injection, schedule: Q01DX009 (ip), vehicle: saline with Tween-80) is 99 % of control; the T/C under setting [14] is 111 % of control and 93 % of control; the T/C under setting [11] is 100 % of control.

For `COc1cccc2c1C(=O)c1c(O)c3c(c(O)c1C2=O)CC(O)(/C(C)=N/NC(=O)CCC(=O)N/N=C(\C)C1(O)Cc2c(O)c4c(c(O)c2C(OC2CC(N)C(O)C(C)O2)C1)C(=O)c1c(OC)cccc1C4=O)CC3OC1CC(N)C(O)C(C)O1` (stereo unspecified), the T/C runs as follows: (dose: 0.75 mg/kg/injection, schedule: Q01DX009 (ip), vehicle: water) 171 % of control; (dose: 1.5 mg/kg/injection, schedule: Q01DX009 (ip), vehicle: water) 171 % of control and 195 % of control; (dose: 3.0 mg/kg/injection, schedule: Q01DX009 (ip), vehicle: water) 202 % of control and 242 % of control; (dose: 6.0 mg/kg/injection, schedule: Q01DX009 (ip), vehicle: water) 250 % of control and 256 % of control; (dose: 12.0 mg/kg/injection, schedule: Q01DX009 (ip), vehicle: water) 320 % of control.

On to `CC1/C=C/C=C/CC/C=C/C=C/C=C/C=C/C(OC2OC(C)C(O)C(N)C2O)CC2OC(CC(O)C(O)CCC(O)CC(O)CC(O)CC(=O)OC(C)C(C)C1O)CC(O)C2C(=O)O` (stereo unspecified), for which the T/C is 107 % of control under setting [14]; 96 % of control under setting [7]; 102 % of control under setting [8]; 98 % of control under setting [9]; 90 % of control under setting [10].

In the case of `Cc1cc(=O)n2c3c(c4c(cc13)c(CN(C)C)cc(=O)n4C)OC2`, the T/C reads like this: under setting [14], 105 % of control; under setting [7], 98 % of control; under setting [8], 100 % of control; under setting [9], 111 % of control.

With `CC1CCC(n2cnc3c(Cl)ncnc32)O1` (stereo unspecified), the T/C under setting [12] is 97 % of control and 104 % of control; the T/C under setting [4] was 92 % of control and 104 % of control; the T/C under setting [5] was 92 % of control and 98 % of control; the T/C under setting [6] is 97 % of control and 104 % of control; the T/C under setting [13] is 92 % of control and 93 % of control.
